In patent US20260027068A1, “METHODS OF ADM[…]-KETAMINE” (Perception Neuroscience, Inc., priority 2022, published 2026):

Test system: subjects with TRD
Assay: MADRS total score after a single 40-minute IV infusion, double-blind placebo-controlled study in TRD
Type: in vivo, human
Details: for Change from Baseline MADRS Total Score, Adjusted mean (SE) / Diff. Adjusted mean (SE) R(−)ketamine - Placebo: MMRM
Experimental: This was a double-blind, randomized, placebo-controlled, multicenter study comprised of 3 phases: screening (up to 2 weeks [day-15 to day-2]), in-clinic treatment (day-1 to day 2; including double-blind treatment [day 1]), and post-treatment follow-up (7 and 14 days after infusion on days 8 and 15, respectively). The study consisted of 3 arms: placebo, R(−)-ketamine solution (30 mg), and R(−)-ketamine solution (60 mg.) A total of 101 adult subjects with TRD were randomly allocated in cohorts of 33-35 subjects/arm to the 3 arms of the study in a blinded manner.
The subjects were randomized within 14 days of screening (Visit 1). Subjects were admitted to the clinic the evening prior to study treatment administration (day-1, Visit 2) and underwent baseline testing to ensure continued study eligibility. Study treatments were infused IV over 40 minutes the next morning (day 1, Visit 2). Starting immediately prior to dosing, subjects were monitored closely for safety.
To determine the efficacy of two doses (30 mg and 60 mg) of intravenous (IV) R(−)-ketamine hydrochloride, the doses were administered as an IV infusion over 40 minutes. These doses are within the range shown to be well-tolerated in a Phase 1 study in healthy volunteers. […] The 10-item clinician-administered MADRS was designed to be used in subjects with MDD to measure the overall severity of depressive symptoms. The MADRS scale is validated, reliable, and acceptable to regulatory health authorities as a primary scale to determine efficacy in major depression.
Population: Subjects with TRD in the full analysis set (FAS) and analyzed according to their randomized treatment. The analysis population includes all randomized subjects who receive any amount of study treatment and have at least one postbaseline assessment available. Variable: Change in total MADRS score from baseline at 24 hours after the start of infusion.
MADRS total score was assessed at 2 and 4 hours, 7 and 14 days after the start of the infusion (days 8 and 15, respectively). Note, for the 2-hour and 4-hour recall periods, the sleep and appetite items were not assessed.
Proportion of subjects with ≥50% improvement in MADRS total score at 24 hours, 7 days, and 14 days after start of infusion (days 8 and 15, respectively).
Proportion of subjects with a MADRS total score≤10 at 24 hours, 7 days, and 14 days after start of infusion (days 8 and 15, respectively).
The 10-item MADRS was administered by the study staff to measure the overall severity of depressive symptoms. The MADRS total score was assessed at screening and baseline (Day 1 pre-dose). The primary efficacy endpoint of improvement in the MADRS total score was evaluated prior to discharge on Day 2 of Visit 2, 24 hours after the start of the infusion of study treatment. The MADRS total score was also assessed at 2 hours, 4 hours, 7 days (on Day 8), and 14 days (on Day 15) after the start of the infusion to evaluate the secondary efficacy endpoints of response (defined as ≥50% improvement in the MADRS total score from pre-dose) and remission (defined as MADRS total score≤10) in the improvement of depressive symptoms in the subjects. While the MADRS is typically used with a 7-day recall period, versions of the MADRS including 2-hour and […] recall periods were used in this study. (For the 2 hour and 4 hour periods, the sleep and appetite items were […]; pre-dose scores for these items obtained on the same day were carried forward).
The change from baseline in MADRS scores was summarized separately by treatment arm for each visit. Associated baseline scores were taken as the last corresponding measurement prior to the first dose of IMP in the treatment period (i.e., Visit 2, pre-dose). The primary endpoint of change from baseline MADRS total score at 24 hours post start of infusion was evaluated using a mixed effects model for repeated measure (MMRM) analysis with observed cases only. […]

[1] = 30 mg, Day 1, 24 hours, primary endpoint
[2] = 60 mg, Day 1, 24 hours, primary endpoint

CN[C@@]1(c2ccccc2Cl)CCCCC1=O.Cl [R(−)-ketamine, (2R)-2-(2-chlorophenyl)-2-(methylamino)cyclohexan-1-one]
MADRS total score, Mean (30 mg, 2 hours): 20.7
MADRS total score, Median (30 mg, 2 hours): 21.0
MADRS total score, Mean (30 mg, 4 hours): 19.2
MADRS total score, Median (30 mg, 4 hours): 19.0
MADRS total score, Mean (30 mg, 24 hours (Day 2)): 16.7
MADRS total score, Median (30 mg, 24 hours (Day 2)): 13.0
Not-responder, % (30 mg, Day 1, 2 hours): 72.7%
Responder (>=50% improvement of MADRS total score), % (30 mg, Day 1, 2 hours): (27.3) %
adjusted odds ratio R-ket/placebo (95% CI) (30 mg, Day 1, 2 hours): 1.667 (0.503, 5.520)
Change from Baseline MADRS Total Score, Adjusted mean (SE) (30 mg, Day 1, 2 hours): −9.7 (1.35)
Diff. Adjusted mean (SE) R(−)ketamine - Placebo (30 mg, Day 1, 2 hours): −0.6 (1.85) [−4.24, 3.08]
Not-responder, % (30 mg, Day 1, 4 hours): 72.7%
Responder (>=50% improvement of MADRS total score), % (30 mg, Day 1, 4 hours): (27.3) %
adjusted odds ratio R-ket/placebo (95% CI) (30 mg, Day 1, 4 hours): 0.963 (0.317, 2.928)
Change from Baseline MADRS Total Score, Adjusted mean (SE) (30 mg, Day 1, 4 hours): −11.2 (1.36)
Diff. Adjusted mean (SE) R(−)ketamine - Placebo (30 mg, Day 1, 4 hours): −0.1 (1.86) [−3.81, 3.56]
Not-responder, % (30 mg, Day 1, 24 hours): 42.4%
Responder (>=50% improvement of MADRS total score), % (30 mg, Day 1, 24 hours): (57.6) %
adjusted odds ratio R-ket/placebo (95% CI) (30 mg, Day 1, 24 hours): 1.418 (0.524, 3.837)
Change from Baseline MADRS Total Score, Adjusted mean (SE) [1]: −13.7 (1.75)
Diff. Adjusted mean (SE) R(−)ketamine - Placebo [1]: −0.0 (2.42) [−4.84, 4.77]
MADRS total score, Mean (30 mg, Day 8): 19.9
MADRS total score, Median (30 mg, Day 8): 22.0
Not-responder, % (30 mg, Day 8): 70.0%
Responder (>=50% improvement of MADRS total score), % (30 mg, Day 8): (30.0) %
adjusted odds ratio R-ket/placebo (95% CI) (30 mg, Day 8): 1.040 (0.336, 3.212)
Change from Baseline MADRS Total Score, Adjusted mean (SE) (30 mg, Day 8): −10.4 (1.81)
Diff. Adjusted mean (SE) R(−)ketamine - Placebo (30 mg, Day 8): 1.0 (2.51) [−4.01, 5.94]
MADRS total score, Mean (30 mg, Day 15): 22.8
MADRS total score, Median (30 mg, Day 15): 24.0
Not-responder, % (30 mg, Day 15): 83.9%
Responder (>=50% improvement of MADRS total score), % (30 mg, Day 15): (16.1) %
adjusted odds ratio R-ket/placebo (95% CI) (30 mg, Day 15): 0.621 (0.169, 2.282)
Change from Baseline MADRS Total Score, Adjusted mean (SE) (30 mg, Day 15): −7.5 (1.82)
Diff. Adjusted mean (SE) R(−)ketamine - Placebo (30 mg, Day 15): 2.4 (2.53) [−2.62, 7.40]
MADRS total score change from baseline, Mean (30 mg, to 2 hours): −8.8
MADRS total score change from baseline, Median (30 mg, to 2 hours): −7.0
MADRS total score change from baseline, Mean (30 mg, to 4 hours): −10.4
MADRS total score change from baseline, Median (30 mg, to 4 hours): −10.0
MADRS total score change from baseline, Mean (30 mg, to 24 hours): −12.8
MADRS total score change from baseline, Median (30 mg, to 24 hours): −15.0
MADRS total score change from baseline, Mean (30 mg, to Day 8): −9.8
MADRS total score change from baseline, Median (30 mg, to Day 8): −7.0
MADRS total score change from baseline, Mean (30 mg, to Day 15): −6.6
MADRS total score change from baseline, Median (30 mg, to Day 15): −5.0
MADRS total score, Mean (60 mg, 2 hours): 18.4
MADRS total score, Median (60 mg, 2 hours): 20.0
MADRS total score, Mean (60 mg, 4 hours): 17.6
MADRS total score, Median (60 mg, 4 hours): 18.0
MADRS total score, Mean (60 mg, 24 hours (Day 2)): 15.1
MADRS total score, Median (60 mg, 24 hours (Day 2)): 16.0
Not-responder, % (60 mg, Day 1, 2 hours): 68.6%
Responder (>=50% improvement of MADRS total score), % (60 mg, Day 1, 2 hours): (31.4) %
adjusted odds ratio R-ket/placebo (95% CI) (60 mg, Day 1, 2 hours): 2.031 (0.634, 6.504)
Change from Baseline MADRS Total Score, Adjusted mean (SE) (60 mg, Day 1, 2 hours): −12.0 (1.31)
Diff. Adjusted mean (SE) R(−)ketamine - Placebo (60 mg, Day 1, 2 hours): −2.9 (1.82) [−6.55, 0.67]
Not-responder, % (60 mg, Day 1, 4 hours): 62.9%
Responder (>=50% improvement of MADRS total score), % (60 mg, Day 1, 4 hours): (37.1) %
adjusted odds ratio R-ket/placebo (95% CI) (60 mg, Day 1, 4 hours): 1.536 (0.534, 4.416)
Change from Baseline MADRS Total Score, Adjusted mean (SE) (60 mg, Day 1, 4 hours): −12.8 (1.32)
Diff. Adjusted mean (SE) R(−)ketamine - Placebo (60 mg, Day 1, 4 hours): −1.7 (1.83) [−5.34, 1.92]
Not-responder, % (60 mg, Day 1, 24 hours): 54.3%
Responder (>=50% improvement of MADRS total score), % (60 mg, Day 1, 24 hours): (45.7) %
adjusted odds ratio R-ket/placebo (95% CI) (60 mg, Day 1, 24 hours): 0.847 (0.318, 2.254)
Change from Baseline MADRS Total Score, Adjusted mean (SE) [2]: −15.3 (1.69)
Diff. Adjusted mean (SE) R(−)ketamine - Placebo [2]: −1.6 (2.38) [−6.35, 3.11]
MADRS total score, Mean (60 mg, Day 8): 17.7
MADRS total score, Median (60 mg, Day 8): 21.0
Not-responder, % (60 mg, Day 8): 65.7%
Responder (>=50% improvement of MADRS total score), % (60 mg, Day 8): (34.3) %
adjusted odds ratio R-ket/placebo (95% CI) (60 mg, Day 8): 1.202 (0.412, 3.511)
Change from Baseline MADRS Total Score, Adjusted mean (SE) (60 mg, Day 8): −12.7 (1.72)
Diff. Adjusted mean (SE) R(−)ketamine - Placebo (60 mg, Day 8): −1.4 (2.44) [−6.26, 3.45]
MADRS total score, Mean (60 mg, Day 15): 19.3
MADRS total score, Median (60 mg, Day 15): 22.0
Not-responder, % (60 mg, Day 15): 65.7%
Responder (>=50% improvement of MADRS total score), % (60 mg, Day 15): (34.3) %
adjusted odds ratio R-ket/placebo (95% CI) (60 mg, Day 15): 1.715 (0.559, 5.263)
Change from Baseline MADRS Total Score, Adjusted mean (SE) (60 mg, Day 15): −11.1 (1.73)
Diff. Adjusted mean (SE) R(−)ketamine - Placebo (60 mg, Day 15): −1.2 (2.46) [−6.09, 3.69]
MADRS difference from placebo (60 mg, day 15): ~2 point
Statistical significance of the MADRS difference from placebo (60 mg, day 15): not statistically significant
MADRS total score change from baseline, Mean (60 mg, to 2 hours): −11.3
MADRS total score change from baseline, Median (60 mg, to 2 hours): −10.0
MADRS total score change from baseline, Mean (60 mg, to 4 hours): −12.1
MADRS total score change from baseline, Median (60 mg, to 4 hours): −12.0
MADRS total score change from baseline, Mean (60 mg, to 24 hours): −14.5
MADRS total score change from baseline, Median (60 mg, to 24 hours): −14.0
MADRS total score change from baseline, Mean (60 mg, to Day 8): −12.0
MADRS total score change from baseline, Median (60 mg, to Day 8): −10.0
MADRS total score change from baseline, Mean (60 mg, to Day 15): −10.4
MADRS total score change from baseline, Median (60 mg, to Day 15): −6.0
